Test results taken from patent US8697747B2, “Enhancing coagulation or reducing fibrinolysis” (THe UAB Research Foundation, priority 2009, dated 2014).

What was measured:
[1] = system: TAFI deficient plasma; test: CLSM thrombelastography with tPA, TAFI deficient plasma; assay type: biochemical, human; conditions: 100 μM CORM-2, tPA 100 IU/mL, median, n=8
Description: Pooled normal plasma (George King Bio-Medical, Overland Park, Kans.) anticoagulated with sodium citrate was utilized for experimentation. […] Factor XIII (FXIII) deficient plasma anticoagulated with sodium citrate was also obtained from the same vendor.
Plasma Sample Composition. The final volume for all subsequently described plasma sample mixtures was 359.4 μL. Sample composition consisted of 316 μL of plasma; 10 μL of tissue factor (0.1% final concentration in 0.9% NaCl; Diagnostica Stago, Asnieres, France), 3.6 μL of dimethyl sulfoxide (DMSO) or DMSO with CORM-2 (Sigma-Aldrich, St. Louis, Mo.) or DMSO with inactivated CORM-2 (iCORM-2), 10 μL of tissue-type plasminogen activator (tPA, 580 U/μg, Genentech, Inc., San Francisco, Calif.) diluted with 10 mM potassium phosphate buffer (pH 7.4) for a final activity of 100 IU/mL, and 20 μL of 200 mM CaCl2. […] This concentration of CORM-2 was chosen because the concentration of CO released would be expected to be in the mid to lower ranges used in previously reported ex vivo, in vitro, and cell-based experiments (Motterlini et al. 2002; Megias et al. 2007; Chlopicki et al. 2006; Dong et al. 2008). […] (Motterlini et al. 2005). While CORM-2 decays slowly in DMSO, DMSO was added to the dry compound just prior to placement into the plasma mixture. The specific series of experiments are subsequently presented.
Assessment of the Effects of CORM-2 on CLSM Parameters in FXIII, PAI-1, TAFI and α2-antiplasmin Deficient Plasmas. These experiments were performed to elucidate the roles played by antifibrinolytic enzymes during CORM-2 mediated modulation of fibrinolysis. Samples of the various deficient plasmas were exposed to 0 or 100 μM of CORM-2 (n=8 per condition). Samples underwent CLSM analyses as subsequently described.
Clot Lifespan Model Analyses. As described in Example 1, plasma sample mixtures were placed in a disposable cup in a computer-controlled THROMBELASTOGRAPH® hemostasis system (Model 5000, Haemoscope Corp., Niles, Ill.), with addition of CaCl2 as the last step to initiate clotting. Data were collected until clot lysis time occurred. […] As this model involves complete fibrinolysis, TTG is equivalent to ACL, so ACL was not presented as it provides no additional information.
Statistical Analyses. Data are presented as median (1st, 3rd quartiles). […] Nonlinear and linear analyses and curve fitting of the various CORM-2 concentrations effects on CLSM variables were performed with commercially available software (SigmaPlot 11.0, Systat Software, Inc., San Jose, Calif.). Analyses of the effects of CORM-2 and iCORM-2 on CLSM variables in normal plasma were conducted with Kruskal-Wallis one way analysis of variance on ranks, whereas Mann-Whitney rank sum tests were used to assess the effects of CORM-2 on CLSM variables in the various immunodepleted/congenitally deficient plasma types (SigmaStat 3.1, Systat Software, Inc., San Jose, Calif.). Graphical representation of the data was generated with commercially available software (SigmaPlot 11.0, Systat Software, Inc., San Jose, Calif.; CorelDRAW 12.0, Corel Corporation, Ottawa, Ontario, Canada; Origin 7.5, OriginLab Corp., Northampton, Mass.). A P value of <0.05 was considered significant.

[2] = system: fibrinogen deficient plasma; test: Thrombelastography in fibrinogen deficient plasma with added fibrinogen; assay type: biochemical, human
Description: Plasma types, purified proteins and compounds. Prothrombin deficient plasma (George King Bio-Medical, Overland Park, Kans.) anticoagulated with sodium citrate was utilized for experimentation concerning the effects of CORM-2 on prothrombin. Purified prothrombin (Enzyme Research Laboratories, South Bend, Ind.) that was 95% pure (10.4 mg/mL, 11.1 U/mg, suspended in 20 mM Tris-HCl in 0.1M NaCl at pH 7.4) was used for experimentation. Fibrinogen deficient plasma (Affinity Biologicals, Inc., Ancaster, Ontario, Canada) anticoagulated with sodium citrate was used in experiments investigating the effects of CORM-2 on fibrinogen. […] CORM-2 and dimethyl sulfoxide (DMSO) were obtained from Sigma-Aldrich, St. Louis, Mo.
Fibrinogen deficient plasma experiments. In these experiments, the final plasma sample mixture volume was 358.6 μL. Sample composition consisted of 260 μL of fibrinogen deficient plasma, 65 μL of pure fibrinogen solution, and dH2O to generate discrete fibrinogen concentrations subsequently described, 3.6 μL of DMSO or CORM-2 in DMSO (final CORM-2 concentration 0 or 100 μM, n=4 per fibrinogen concentration), 10 μL of tissue factor reagent (0.1% final concentration), and 20 μL of 200 mM CaCl2. The fibrinogen concentrations studied were 100, 200, 300, 400, 500, 600, and 800 mg/dL.
Thrombelastographic monitoring. Plasma sample mixtures were placed in a disposable cup in a computer-controlled THROMBELASTOGRAPH® hemostasis system (Model 5000, Haemoscope Corp., Niles, Ill.), with addition of CaCl2 as the last step to initiate clotting. Data were collected until clot strength stabilized. The following previously described variables (Examples 1-3) were determined at 37° C.: Time to maximum rate of thrombus generation (TMRTG): This is the time interval (sec) observed prior to maximum speed of clot growth. […]
Statistical Analyses. […] The difference between the mean values of MRTG or TTG in samples exposed to 0 or 100 μM CORM-2 were determined and expressed as percent difference secondary to CORM-2 exposure in the fibrinogen deficient plasma experiments.

[3] = 100 μM vs 0 μM CORM-2, fibrinogen 300 mg/dL

**Q.** With [C-]#[O+].[C-]#[O+].[C-]#[O+].[C-]#[O+].[C-]#[O+].[C-]#[O+].[Cl][Ru][Cl].[Cl][Ru][Cl] [CORM-2, tricarbonyldichlororuthenium (II) dimer] as the compound, how does the “CGT (clot growth time)” value [1] read?
**A.** 410 s

**Q.** And the “CLS (clot lifespan)” value [1]?
**A.** 370 s

**Q.** And the “CLT (clot lysis time)” value [1]?
**A.** 932 s

**Q.** And the “MRL (maximum rate of lysis)” value [1]?
**A.** −1.4 -dynes/cm^2/sec

**Q.** And the “MRTG (maximum rate of thrombus generation)” value [1]?
**A.** 6.1 dynes/cm^2/sec

**Q.** And the “TMRL (time to maximum rate of lysis)” value [1]?
**A.** 612 s

**Q.** What about the “TMRTG (time to maximum rate of thrombus generation)” value [1] of the same compound?
**A.** 175 s

**Q.** What about the “TTG (total thrombus generation)” value [1] of the same compound?
**A.** 142 dynes/cm^2

**Q.** What about the “TMRTG, range of values” ([2]; 100 μM CORM-2, fibrinogen 100-800 mg/dL) of the same compound?
**A.** 2.83 to 4.00 min

**Q.** And the “increase in MRTG secondary to CORM-2 exposure” value [2, 3]?
**A.** > 80%

**Q.** What about the “increase in TTG secondary to CORM-2 exposure” value [2, 3] of the same compound?
**A.** > 80%
